ChEMBL document CHEMBL5728268, “Substituted tricyclic heterocyclic compounds and use thereof” (2021)

target: Tyrosine-protein kinase JAK2 (Homo sapiens, UniProt O60674); experiment: JAK2 Assay: JAK2 (5-20 mU diluted in 50 mM Tris pH 7.5, 0.1 mM EGTA, 0.05% 0-mercaptoethanol, 1 mg/ml BSA) is assayed against PDKtide ([…]-[…]) in a final volume of 25.5 μl containing 50 mM Tris pH 7.5, 0.1 mM EGTA, 0.05% 0-mercaptoethanol, 100 μM substrate peptide, 10 mM magnesium acetate and 0.005 mM [33P-γ-ATP] (50-1000 cpm/pmole) and incubated for 30 min at room temperature Assays are stopped by addition of 5 μl of 0.5 M (3%) orthophosphoric acid and then harvested onto P81 Unifilter plates with a wash buffer of 50 mM orthophosphoric acid.
Sequence (O60674 whole entry): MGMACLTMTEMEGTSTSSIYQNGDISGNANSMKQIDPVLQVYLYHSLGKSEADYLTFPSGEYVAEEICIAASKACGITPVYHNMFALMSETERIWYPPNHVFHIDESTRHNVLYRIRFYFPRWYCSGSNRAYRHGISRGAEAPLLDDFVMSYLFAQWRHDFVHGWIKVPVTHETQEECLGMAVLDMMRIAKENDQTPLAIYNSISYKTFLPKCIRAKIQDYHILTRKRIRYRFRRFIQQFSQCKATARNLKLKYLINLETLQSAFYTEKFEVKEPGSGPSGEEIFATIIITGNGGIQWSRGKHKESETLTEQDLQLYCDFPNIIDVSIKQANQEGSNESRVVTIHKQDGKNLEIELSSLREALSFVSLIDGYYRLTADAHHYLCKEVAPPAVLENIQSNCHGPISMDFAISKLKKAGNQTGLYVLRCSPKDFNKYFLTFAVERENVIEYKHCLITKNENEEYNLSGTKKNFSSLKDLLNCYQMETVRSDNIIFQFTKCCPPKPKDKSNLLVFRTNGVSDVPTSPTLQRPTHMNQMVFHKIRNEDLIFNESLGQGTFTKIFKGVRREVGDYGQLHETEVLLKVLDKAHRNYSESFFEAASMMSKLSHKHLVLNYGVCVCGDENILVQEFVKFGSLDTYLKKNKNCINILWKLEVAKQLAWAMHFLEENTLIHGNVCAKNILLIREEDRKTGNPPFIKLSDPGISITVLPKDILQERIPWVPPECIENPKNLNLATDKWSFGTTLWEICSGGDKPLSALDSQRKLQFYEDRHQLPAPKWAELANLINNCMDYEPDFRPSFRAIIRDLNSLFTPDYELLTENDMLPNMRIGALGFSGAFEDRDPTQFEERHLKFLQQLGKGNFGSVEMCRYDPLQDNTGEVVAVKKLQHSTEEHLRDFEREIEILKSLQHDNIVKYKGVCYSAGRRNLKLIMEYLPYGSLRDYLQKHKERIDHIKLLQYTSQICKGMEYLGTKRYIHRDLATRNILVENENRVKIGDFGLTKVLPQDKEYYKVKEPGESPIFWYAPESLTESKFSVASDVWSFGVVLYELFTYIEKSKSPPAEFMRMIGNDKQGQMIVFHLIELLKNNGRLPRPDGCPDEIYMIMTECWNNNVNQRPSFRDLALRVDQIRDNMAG

Row | Compound | IC50 [µM]
1 | CCc1cc2c(cn1)CN(C1CCOCC1)c1nccc3[nH]nc-2c13 | 1.7
2 | Cc1cc2c(cn1)CN(C1CCOCC1)c1nccc3[nH]nc-2c13 | 0.89
3 | Fc1ccc2c(c1)-c1n[nH]c3ccnc(c13)N(C1CCOCC1)C2 | 0.9
4 | c1cc2[nH]nc3c2c(n1)N(C1CCCC1)CCC3 | 6.6

Now from value to compound:

Row | IC50 [µM] | Compound
5 | 1.5 | CCn1ncc2c1CN(C1CCOCC1)c1nccc3[nH]nc-2c13
6 | 2.1 | CC(C)n1ncc2c1CN(C1CCOCC1)c1nccc3[nH]nc-2c13
7 | 0.92 | Cn1ncc2c1CN(C1CCOCC1)c1nccc3[nH]nc-2c13
8 | 4.5 | CC(C)N1CCC(N2Cc3c(cnn3C)-c3n[nH]c4ccnc2c34)CC1
9 | 5.4 | CCn1ncc2c1CN(C1CCN(C(C)C)CC1)c1nccc3[nH]nc-2c13
